This note sets out measurements from patent publication US9079866B2, “Flap modulators” (JANSSEN PHARMACEUTICA NV, priority 2013, dated 2015).

Where two headings read alike, the source gives them in different places.

One assay addresses human FLAP (Homo sapiens (Human), UniProt P20292). In words: FLAP binding assay (HTRF format). In a few lines:
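Binding of compounds to FLAP read out as HTRF ratio. Values are the mean of two assay plates, each sample run in duplicate per plate.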
Background: In TR-FRET formats the signal depends on donor and acceptor labels being close together.

For assay [1], the system named is leukotriene pathway in human whole blood (LTB4 levels). In words: Human whole blood assay (A23187-stimulated LTB4). The format is cell-based. Conditions: Homo sapiens, human whole blood diluted 1:1 in RPMI, A23187-stimulated LTB4; read-out: LTB4 IC50 1:1. A digest of the protocol:
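Blood (heparin) diluted 1:1 RPMI; compound pre-incubation 15 min, 37° Celsius; A23187 7 μg/mL, 30 min, 37° Celsius; plasma LTB4 by commercial kit. IC50 via 4-parameter equation.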

[2] abbreviates: human FLAP wild type, HTRF format, average of two plates, duplicates.

Chain of human FLAP (P20292 whole entry): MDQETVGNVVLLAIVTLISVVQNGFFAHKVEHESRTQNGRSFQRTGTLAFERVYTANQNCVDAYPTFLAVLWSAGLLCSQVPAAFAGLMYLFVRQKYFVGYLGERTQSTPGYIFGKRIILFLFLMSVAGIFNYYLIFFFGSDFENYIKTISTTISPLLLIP

For the compound `Nc1cnc(-c2ccc(-c3ccccc3S(=O)(=O)Nc3ccccc3)cc2F)cn1` [Example 26, 4′-(5-Aminopyrazin-2-yl)-3′-fluoro-N-phenylbiphenyl-2-sulfonamide], the Ki (as a rule, a measure of affinity in units of concentration, obtained from inhibition or displacement) on human FLAP (setting [2]) turned out to be 1 nM. The IC50 (usually the concentration that inhibits the measured activity by half) in assay [1] is 26 nM.
The like results for `CCN1CCCC[C@@H](NS(=O)(=O)c2ccccc2-c2ccc(-c3cnc(N)cn3)c(F)c2)C1=O` [Example 27, (S)-4′-(5-Aminopyrazin-2-yl)-N-[(3S)-1-ethyl-2-oxoazepan-3-yl]-3′-fluorobiphenyl-2-sulfonamide] were, in that order, 29 nM and 10000 nM.
For the compound `CN1CCCC[C@@H](NS(=O)(=O)c2ccccc2-c2ccc(-c3cnc(N)cn3)c(F)c2)C1=O` [Example 29, (S)-4′-(5-Aminopyrazin-2-yl)-3′-fluoro-N-[(3S)-1-methyl-2-oxoazepan-3-yl]biphenyl-2-sulfonamide], the Ki on human FLAP (setting [2]) came out at 59 nM. For the same compound, the IC50 in assay [1] worked out at 30 nM.
For `Nc1cnc(-c2ccc(-c3ccccc3S(=O)(=O)Nc3cccnc3)cc2F)cn1` [Example 31, 4′-(5-Aminopyrazin-2-yl)-3′-fluoro-N-pyridin-3-ylbiphenyl-2-sulfonamide], the Ki at human FLAP (setting [2]) is 4 nM. Moreover, the IC50 in assay [1] is 36 nM.
For `CC(C)S(=O)(=O)Nc1ccccc1-c1ccc(-c2cnc(N)cn2)c(F)c1` [Example 34, N-(4′-(5-Aminopyrazin-2-yl)-3′-fluoro-[1,1′-biphenyl]-2-yl)propane-2-sulfonamide] the same measures were 31 nM and 334 nM.
For `CCS(=O)(=O)Nc1ccccc1-c1ccc(-c2cnc(N)cn2)c(F)c1` [Example 35, N-[4′-(5-Aminopyrazin-2-yl)-3′-fluorobiphenyl-2-yl]ethanesulfonamide] the same measures were 36 nM and 94 nM.
Regarding `CCCS(=O)(=O)Nc1ccccc1-c1ccc(-c2cnc(N)cn2)c(F)c1` [Example 36, N-[4′-(5-Aminopyrazin-2-yl)-3′-fluorobiphenyl-2-yl]propane-1-sulfonamide], the Ki on human FLAP (read-out: FLAP Binding wild type HTRF Ki) was determined as 10 nM. Further, the IC50 in assay [1] was found to be 120 nM.
At human FLAP (setting [2]), `CC(C)CS(=O)(=O)Nc1ccccc1-c1ccc(-c2cnc(N)cn2)c(F)c1` [Example 37, N-[4′-(5-Aminopyrazin-2-yl)-3′-fluorobiphenyl-2-yl]-2-methylpropane-1-sulfonamide] came in with a Ki of 30 nM. Also, the IC50 in assay [1] was 676 nM.
For `Nc1cnc(-c2ccc(-c3ccccc3NS(=O)(=O)C3CC3)cc2F)cn1` [Example 38, N-(4′-(5-aminopyrazin-2-yl)-3′-fluoro-[1,1′-biphenyl]-2-yl)cyclopropanesulfonamide] the same measures were 33 nM and 177 nM.
`CCCCCCS(=O)(=O)Nc1ccccc1-c1ccc(-c2cnc(N)cn2)c(F)c1` [Example 39, N-[4′-(5-Aminopyrazin-2-yl)-3′-fluorobiphenyl-2-yl]hexane-1-sulfonamide] had a Ki at human FLAP (setting [2]) of 8 nM. Further, the IC50 in assay [1] was found to be 75 nM.
For `Nc1cnc(-c2ccc(-c3ccccc3NS(=O)(=O)C3CCC3)cc2F)cn1` [Example 40, N-(4′-(5-Aminopyrazin-2-yl)-3′-fluoro-[1,1′-biphenyl]-2-yl)cyclobutanesulfonamide] the same measures were 14 nM and 112 nM.
For the compound `Nc1cnc(-c2ccc(-c3ccccc3NS(=O)(=O)C(F)(F)F)cc2F)cn1` [Example 41, [4′-(5-Aminopyrazin-2-yl)-3′-fluorobiphenyl-2-yl]-1,1,1-trifluoromethanesulfonamide], affinity on human FLAP (setting [2]) was put at a Ki of 14 nM. For the same compound, the IC50 in assay [1] was found to be 2690 nM.
For `CN(C)S(=O)(=O)c1ccccc1-c1ccc(-c2cnc(N)cn2)c(F)c1` [Example 42, 4′-(5-Aminopyrazin-2-yl)-3′-fluoro-N,N-dimethylbiphenyl-2-sulfonamide], the Ki at human FLAP (setting [2]) was found to be 11 nM. Moreover, the half-inhibitory concentration (IC50) in assay [1] stood at 149 nM.
`Nc1cnc(-c2ccc(-c3ccccc3S(=O)(=O)N3CCCCC3)cc2F)cn1` [Example 43, 5-[3-Fluoro-2′-(piperidin-1-ylsulfonyl)biphenyl-4-yl]pyrazin-2-amine] showed an inhibition constant (Ki) at human FLAP (setting [2]) of 2 nM. Also, the IC50 in assay [1] worked out at 111 nM.
`Nc1cnc(-c2ccc(-c3ccccc3S(=O)(=O)N3CCOCC3)cc2F)cn1` [Example 44, 5-[3-Fluoro-2′-(morpholin-4-ylsulfonyl)biphenyl-4-yl]pyrazin-2-amine]: the Ki on human FLAP (setting [2]) was 7 nM. Also, the IC50 in assay [1] came out at 58 nM.
`Nc1cnc(-c2ccc(-c3ccccc3S(=O)(=O)N3CCS(=O)(=O)CC3)cc2F)cn1` [Example 45, 5-{2′-[(1,1-Dioxidothiomorpholin-4-yl)sulfonyl]-3-fluorobiphenyl-4-yl}pyrazin-2-amine] gave a Ki on human FLAP (setting [2]) of 3 nM. The half-maximal inhibitory concentration (IC50) in assay [1] is 10 nM.
For the compound `Nc1cnc(-c2ccc(-c3ccccc3S(=O)(=O)N3CCNCC3)cc2F)cn1` [Example 46, 5-[3-Fluoro-2′-(piperazin-1-ylsulfonyl)biphenyl-4-yl]pyrazin-2-amine], the Ki at human FLAP (setting [2]) was determined as 57 nM. In assay [1], the IC50 amounted to 194 nM.
As for `CCN(CC)S(=O)(=O)c1ccccc1-c1ccc(-c2cnc(N)cn2)c(F)c1` [Example 47, 4′-(5-Aminopyrazin-2-yl)-N,N-diethyl-3′-fluorobiphenyl-2-sulfonamide], on human FLAP (setting [2]), the affinity corresponds to a Ki of 1 nM. Also, the IC50 in assay [1] is 17 nM.
With `Nc1cnc(-c2ccc(-c3ccccc3S(=O)(=O)N3CCCC3)cc2F)cn1` [Example 48, 5-[3-Fluoro-2′-(pyrrolidin-1-ylsulfonyl)biphenyl-4-yl]pyrazin-2-amine], on human FLAP (setting [2]), the affinity corresponds to a Ki of 11 nM. For the same compound, the IC50 in assay [1] was found to be 158 nM.
`Nc1cnc(-c2ccc(-c3ccccc3S(=O)(=O)N3CCC(F)(F)CC3)cc2F)cn1` [Example 49, 5-{2′-[(4,4-Difluoropiperidin-1-yl)sulfonyl]-3-fluorobiphenyl-4-yl}pyrazin-2-amine] gave a Ki on human FLAP (setting [2]) of 2 nM. For the same compound, the IC50 in assay [1] worked out at 21 nM.
The compound `Nc1cnc(-c2ccc(-c3ccccc3S(=O)(=O)N3CCCC(F)(F)C3)cc2F)cn1` [Example 50, 5-{2′-[(3,3-Difluoropiperidin-1-yl)sulfonyl]-3-fluorobiphenyl-4-yl}pyrazin-2-amine] showed a Ki at human FLAP (setting [2]) of 1 nM. In assay [1], the half-inhibitory concentration (IC50) stood at 15 nM.
For `Nc1cnc(-c2ccc(-c3ccccc3S(=O)(=O)N3CCC(F)(F)C3)cc2F)cn1` [Example 51, 5-{2′-[(3,3-Difluoropyrrolidin-1-yl)sulfonyl]-3-fluorobiphenyl-4-yl}pyrazin-2-amine] the same measures were 4 nM and 42 nM.
Take `Nc1cnc(-c2ccc(-c3ccccc3S(=O)(=O)N3CC(F)(F)C3)cc2F)cn1` [Example 52, 5-{2′-[(3,3-Difluoroazetidin-1-yl)sulfonyl]-3-fluorobiphenyl-4-yl}pyrazin-2-amine]: at human FLAP (setting [2]), the Ki was found to be 4 nM. Moreover, the IC50 in assay [1] is 155 nM.
For `Nc1cnc(-c2ccc(-c3ccccc3S(=O)(=O)N3CCCCCC3)cc2F)cn1` [Example 53, 5-[2′-(Azepan-1-ylsulfonyl)-3-fluorobiphenyl-4-yl]pyrazin-2-amine] the same measures were 3 nM and 238 nM.
Take `CN1CCN(S(=O)(=O)c2ccccc2-c2ccc(-c3cnc(N)cn3)c(F)c2)CC1` [Example 54, 5-{3-Fluoro-2′-[(4-methylpiperazin-1-yl)sulfonyl]biphenyl-4-yl}pyrazin-2-amine]: on human FLAP (setting [2]), the Ki came to 20 nM. Moreover, the IC50 in assay [1] amounted to 23 nM.
Turning to `Nc1cnc(-c2ccc(-c3ccccc3S(=O)(=O)N3CCC(O)(C(F)(F)F)CC3)cc2F)cn1` [Example 55, 1-{[4′-(5-Aminopyrazin-2-yl)-3′-fluorobiphenyl-2-yl]sulfonyl}-4-(trifluoromethyl)piperidin-4-ol], the Ki at human FLAP (setting [2]) turned out to be 1 nM. Further, in assay [1], the IC50 was 1230 nM.
As to `CS(=O)(=O)N1CCN(S(=O)(=O)c2ccccc2-c2ccc(-c3cnc(N)cn3)c(F)c2)CC1` [Example 56, 5-(3-Fluoro-2′-{[4-(methylsulfonyl)piperazin-1-yl]sulfonyl}biphenyl-4-yl)pyrazin-2-amine], the affinity at human FLAP (setting [2]), expressed as Ki, was 11 nM. In assay [1], the IC50 stood at 3520 nM.
Compound `CC(=O)N1CCN(S(=O)(=O)c2ccccc2-c2ccc(-c3cnc(N)cn3)c(F)c2)CC1` [Example 57, 5-{2′-[(4-Acetylpiperazin-1-yl)sulfonyl]-3-fluorobiphenyl-4-yl}pyrazin-2-amine] returned a Ki at human FLAP (setting [2]) of 15 nM. Also, the IC50 in assay [1] amounted to 252 nM.
For `Nc1cnc(-c2ccc(-c3ccccc3S(=O)(=O)N3CCN(C(=O)C4CC4)CC3)cc2F)cn1` [Example 58, 5-(2′-{[4-(Cyclopropylcarbonyl)piperazin-1-yl]sulfonyl}-3-fluorobiphenyl-4-yl)pyrazin-2-amine] the same measures were 5 nM and 991 nM.
For the compound `Nc1cnc(-c2ccc(-c3ccccc3S(=O)(=O)N3CCN(CCO)CC3)cc2F)cn1` [Example 59, 2-(4-{[4′-(5-Aminopyrazin-2-yl)-3′-fluorobiphenyl-2-yl]sulfonyl}piperazin-1-yl)ethanol], on human FLAP (setting [2]), the Ki turned out to be 20 nM. Besides, the IC50 in assay [1] turned out to be 1020 nM.
At human FLAP (setting [2]), `Nc1cnc(-c2ccc(-c3ccccc3S(=O)(=O)N3CCN(C4CC4)CC3)cc2F)cn1` [Example 60, 5-{2′-[(4-Cyclopropylpiperazin-1-yl)sulfonyl]-3-fluorobiphenyl-4-yl}pyrazin-2-amine] registered a Ki of 28 nM. Moreover, the IC50 in assay [1] was 464 nM.
At human FLAP (setting [2]), `N#CC1CCN(S(=O)(=O)c2ccccc2-c2ccc(-c3cnc(N)cn3)c(F)c2)CC1` [Example 64, 1-{[4′-(5-Aminopyrazin-2-yl)-3′-fluorobiphenyl-2-yl]sulfonyl}piperidine-4-carbonitrile] displayed a Ki of 2 nM. For the same compound, in assay [1], the IC50 worked out at 6 nM.
`Nc1cnc(-c2ccc(-c3ccccc3S(=O)(=O)N3CCC(N)CC3)cc2F)cn1` [Example 65, 5-{2′-[(4-Aminopiperidin-1-yl)sulfonyl]-3-fluorobiphenyl-4-yl}pyrazin-2-amine] registered a Ki at human FLAP (setting [2]) of 49 nM. The half-maximal inhibitory concentration (IC50) in assay [1] came out at 322 nM.
